Earlier results, collected in US5346895A, “Chromans and thiochromans with heteroarylethynyl substituents at the 7-position having retinoid-like biological activity” (Allergan, Inc., priority 1993, dated 1994).

Test system: ornithine decarboxylase (ODC), TPA induced ODC activity
Conditions: result in words, retinoic acid, background knowledge

## CC1=C(/C=C/C(C)=C/C=C/C(C)=C/C(=O)O)C(C)(C)CCC1 [Retinoic acid]
  inhibition of induction of ODC activity by TPA: inhibits this induction of ODC activity by TPA
